Values of other authors as cited in article PMC3462432 (FEBS letters, 2012).

Substance | activity against B. anthracis (B. anthracis) | in vitro activity against mouse leukemia cells (mouse leukemia cells)
plantazolicin B | devoid of activity | –
plantazolicin A | potent activity | –
cypemycin | – | potent in vitro activity
